These results are taken from US20210338647A1, “Combination of Acetylcholinesterase Inhibitor and 5-HT4 Receptor Agonist As Neuroprotective Agent In the Treatment of Neurodegenerative Diseases” (UNIVERSITE DE CAEN NORMANDIE, priority 2018, published 2021).

Marks after values point to notes of the source that are not given here.

One assay deals with phospho Tau (AT100). The assay is described as follows: Phosphorylation of Tau (AT100) in MAP-2 neurons injured with Aβ 1-42. It counts as cell-based, rat. The note with it: for AT100: Aβ1-42 20 μM/2.5 μM, percentage of control, Example 3. The protocol: Rat hippocampal neurons were cultured as described by Callizot et al. (2013) J. Neurosci. Res. 91706-716. Pregnant female rats of 17 days gestation (Rats Wistar; Janvier Labs France) were killed using a deep anesthesia with CO2 chamber followed by a cervical dislocation. Then, fetuses were removed from the uterus and immediately placed in ice-cold L15 Leibovitz medium with a 2% penicillin (10,000 U/ml) and streptomycin (10 mg/ml) solution (PS) and 1% bovine serum albumin (BSA). Hippocampal neurons were treated for 20 min at 37° C. with a trypsin-EDTA solution at a final concentration of 0.05% trypsin and 0.02% EDTA. The dissociation was stopped by adding Dulbecco's modified Eagle's medium (DMEM) with 4.5 g/l of glucose, containing DNAse I grade 11 (final concentration 0.5 mg/ml) and 10% fetal calf serum (FCS). Cells were mechanically dissociated by three forced passages through the tip of a 10-ml pipette and then centrifuged at 515×g for 10 min at 4° C. The supernatant was discarded, and the pellet was resuspended in a defined culture medium consisting of Neurobasal medium with a 2% solution of B27 supplement, 2 mmol/l of L-glutamine, 2% of PS solution, and 10 ng/ml of brain-derived neurotrophic factor (BDNF). Viable cells were counted in a Neubauer cytometer, using the trypan blue exclusion test. […] The medium was changed every 2 days.
The hippocampal neurons were exposed with Aβ solutions (see below) after 17 days of culture. The Aβ1-42 preparation was done following the procedure described by Callizot et al. (2013) J. Neurosci. Res. 91706-716. Briefly, Aβ1-42 peptide was dissolved in the defined culture medium mentioned above, at an initial concentration of 40 μM. This solution was gently agitated for 3 days at 37° C. in the dark and immediately used after being properly diluted in culture medium to the concentrations used (20 μM (plate 1) or 2.5 μM (plate 2) corresponding to 2 μM or 0.25 μM of oligomers (AβO) respectively).
Donecopride fumarate was solved in culture medium and preincubated 1 h before Aβ application. Aβ1-42 preparation was added to a final concentration of 20 or 2.5 μM (=2 μM or 0.25 μM of AβO, evaluated by automatic Western Blot) diluted in control medium in presence of Donecopride.
Donecopride fumarate (Donecopride) was tested on one culture in a 96 well plate (6 wells per conditions). The compound was preincubated one hour before […] application. The following conditions were assessed:
After permeabilization with 0.1% of saponin, cells were incubated for 2 h with:
b) mouse monoclonal antibody anti-phospho Tau (AT100) at dilution of 1/400 in PBS containing 1% fetal calf serum and 0.1% of saponin.
For each condition, 30 pictures (representative of the whole well area) per well were taken using ImageXpress (Molecular Devices) at 20× magnification. All images were taken with the same acquisition parameters. Analyses were performed automatically by using Custom Module Editor (Molecular Devices).
area of tau in neurons (μm^2, overlapping with MAP-2 positive neurons).
Rat hippocampal neurons were cultured as described by Callizot et al. (2013) J. Neurosci. Res. 91:706-716. Briefly, pregnant female rats of 17 days gestation (Rats Wistar; Janvier Labs France) were killed using a deep anesthesia with CO2 chamber and a cervical dislocation. Then, fetuses were removed from the uterus and immediately placed in ice-cold L15 Leibovitz medium with a 2% penicillin (10,000 U/ml) and streptomycin (10 mg/ml) solution (PS) and 1% bovine serum albumin (BSA). The hippocampi were treated for 20 min at 37° C. with a trypsin-EDTA solution at a final concentration of 0.05% trypsin and 0.02% EDTA. The dissociation was stopped by addition of Dulbecco's modified Eagle's medium (DMEM) with 4.5 g/l of glucose, containing DNAse I grade II (final concentration 0.5 mg/ml) and 10% fetal calf serum (FCS). Cells were mechanically dissociated by three forced passages through the tip of a 10-ml pipette.

The subject of assay [1] is 5XFAD mice. The experiment in a line: Amyloid plaque number (thioflavin T staining) in brain sections of 5XFAD mice. It counts as in vivo, mouse. The note with it: 1 mg/kg twice a week for 3 months, versus controls. How it is done: (§1) 5XFAD mice received chronic treatments with drugs or vehicle according to 2 different protocols. In each experiment, drugs or vehicle solution were administered i.p. twice a week (1 mg/kg). In “Protocol 1”, mice (n=6-7 mice per group) were treated with compounds for two months, from 2 to 4 months of age. In “Protocol 2”, mice (n=7) were treated with compounds for three months, from 1 month to 4 months of age. At the end of each protocol, mice were anesthetized with a mixture of 100 mg/kg ketamine and 10 mg/kg xylazine in saline solution and perfused transcardially with PBS. Brains were quickly isolated on ice, the olfactory bulbs and cerebellum removed and the two hemispheres divided. One hemisphere was frozen on dry ice and stored at −80° C. for biochemical analysis, while the other was post-fixed in 4% PFA for immunohistochemistry (IHC).
Thirty-micrometer-thick sections were cut using a vibratome (Microm HM 650V, Thermo Scientific, Saint Herblain, France) and stored in cryoprotectant medium at −20° C. […]
Images were acquired with an Axiolmager Z1 microscope (Carl Zeiss S.A.S., Marly le Roi, France). […] GFAP expression was quantified using Image J software and results are expressed as area fractions. […]

The subject of assay [2] is 5XFAD mice. The experiment in a line: Novel object recognition test in chronically treated 5XFAD mice. The note with it: 5XFAD females; 1 mg/kg twice a week for 3 months; 24 h interval between training and test. It counts as in vivo, mouse. The protocol: as §1
(§2) 28 female 5XFAD mice (C57BL/6J genetic background) were used in this study. Mice received vehicle or compounds (1 mg/kg) i.p., twice a week for three months, from 1 to 4 months of age.

The test system of assay [3] is 5XFAD mice. The experiment in a line: Aβ42 concentration in cerebrospinal fluid of chronically treated 5XFAD mice. The assay is classed as in vivo, mouse. The note with it: 1 mg/kg twice a week for 3 months, versus controls. How it is done:
as §1, §2

On to `COc1cc2c(cc1OC)C(=O)C(CC1CCN(Cc3ccccc3)CC1)C2` (stereo not shown) [Donepezil], for which the AT100 with phospho Tau (AT100) (donepezil 100 pM) worked out at 181%; in the assay with phospho Tau (AT100) (donepezil 1 nM) it was 165%*; in the assay on phospho Tau (AT100) (donepezil 1 nM, listed as donepezil), 165%; with phospho Tau (AT100) (donepezil 10 nM), 146%*; in the assay on phospho Tau (AT100) (donepezil 50 nM), 139%*; in the assay with phospho Tau (AT100) (donepezil 100 nM) it was 140%*. For the same compound, the AT100 in the assay with phospho Tau (AT100) (donepezil 500 nM) is 142%*; in the assay on phospho Tau (AT100) (donepezil 1 μM), 141%*; in the assay with phospho Tau (AT100) (donepezil 10 μM), 143%*.

Regarding `CCCCN1CCC(CCC(=O)c2cc(Cl)c(N)cc2OC)CC1` [RS67333, 1-(4-amino-5-chloro-2-methoxy-phenyl)-3-(1-butyl-4-piperidinyl)-1-propanone], the “Amyloid plaque number in hippocampus” value in the assay with 5XFAD mice [1] was “not significantly different compared to controls”. Besides, in the assay with 5XFAD mice [2], the “Recognition memory: time exploring novel versus familiar object (NOR test)” value is reported as “reverses cognitive impairment”. The “Lowest protective active dose: hyperphosphorylation of Tau” value in the assay with phospho Tau (AT100) (Aβ 1-42 injured hippocampal neurons, Example 3 step 1) is 1 nM. Also, in the assay on 5XFAD mice [3], the “Aβ42 concentration in cerebrospinal fluid (CSF)” value is given as “not significantly different compared to controls”.
